Values quoted from earlier work, collected in US20070025931A1, “Powdery preparations containing 2.4.6-trianilino-p-(carbo-2'-ethylhexyl-1'-oxi)-1.3.5-triazine” (BASF Aktiengesellschaft, priority 2004, published 2007).

Settings: at 314 nm

absorbance coefficient: > 1500
Compound: CCCCC(CC)COC(=O)c1ccc(Nc2nc(Nc3ccc(C(=O)OCC(CC)CCCC)cc3)nc(Nc3ccc(C(=O)OCC(CC)CCCC)cc3)n2)cc1 (stereo not shown) [Uvinul® T150, 2,4,6-Trianilino-p-(carbo-2′-ethylhexyl-1′-oxy)-1,3,5-triazine]
